Measured values taken from patent US20230248652A1, “BIODEGRADEABLE MULTI-CAVITY MICROPARTICLES AND THEIR USE IN TREATMENT” (OXFORD UNIVERSITY INNOVATION LIMITED, priority 2020, published 2023).

Test system: 3D foam cell spheroid
Assay: HIFU implantation of loaded mcPLGA MPs into 3D foam cell spheroids (fluorescence)
Format: cell-based, human
Details: HIFU exposure, 1 mg/ml
Experimental: As the cells in the ex vivo porcine artery were considered non-viable, we have also tested the ability to deliver DAPI to viable cells using a 3D foam cell spheroid model (FIG. 13).
THP-1 cells, a human monocytic cell line (ATCC, Rockville, MD) were routinely cultured in Roswell Park Memorial Institute (RPMI) 1640 Medium supplemented with 100 IU/ml of penicillin, 100 µg/ml streptomycin, 2 mmol/l L-glutamine, 10% (vol/vol) FBS and incubated in a humidified atmosphere of 5% CO2 in an incubator at 37° C. The medium was replaced every 2-3 days by centrifuging these suspended cells at 125 g for 5 min. For differentiation of THP-1 monocytes into macrophages, THP-1 cells were seeded at a density of 7 × 10^5 cells/ml with differentiation medium, growth medium supplemented with 50 ng/mL phorbol 12-myristate 13-acetate (PMA), for 3 days to obtain macrophages. Subsequently, for foam cells induction, macrophages were incubated with 100 µg/ml oxLDL (Low Density Lipoprotein from Human Plasma, oxidized; Invitrogen,USA) in the differentiation medium for 2 days.
Foam cells were used to produce a three-dimensional (3D) foam cell spheroid model by modification of the hanging drop method. Single-cell suspensions were generated from trypsinized monolayers. […]
Fluorescence microscopy was used to analyze the distribution of mcPLGA MPs and the release of therapeutics (FIG. 27c). […]

## N=C(N)c1ccc(-c2cc3ccc(C(=N)N)cc3[nH]2)cc1 [DAPI]
  delivery of DAPI / particle distribution in foam cell spheroid: diffused through the membranes of the cells to stain the DNA of the foam cells
